How the values were obtained:
HIF-1α [1] = target: T1, HIF-1α (Homo sapiens, UniProt Q16665); assay: Western blot of HIF-1α protein in hypoxic A549 cells; assay type: cell-based; settings: hypoxia 16 h
Description: Next, we evaluated the inhibitory effects of the nine aforementioned test compounds on HIF-1α protein accumulation by western blot analyses in A549 cells experiencing hypoxic conditions.
Treatment was under hypoxic conditions for 16 h. Cells were then lysed for western blot analysis, which was conduced with antibodies against HIF-1α and β-actin. Expression levels were quantified by ImageJ (NIH, Bethesda, MO, USA) and graphed. **P < 0.01 versus 1% O2 DMSO (D)-treated control group.
(B, C) After HEK-293 cells (B) and A549 cells (C) were treated with Compound 12 (at concentrations of 0 nM, 0.1 nM, 1 nM, 10 nM, 100 nM, and 1000 nM) under hypoxic conditions for 16 h, expression of HIF-1α was determined by western blot analysis and then graphed. (D, E) Half maximal inhibitory concentration (IC50) values were calculated using GraphPad Prism software, using the quantified HIF-1α levels determined in B and C.
HEK-293 cells and A549 cells were treated with Compound 12, at 0.1–1000 nM concentrations, under hypoxic conditions for 16 h.
Proteins extracted from cells using PRO-PREP (iNtRon Biotech, South Korea) were separated by SDS-PAGE and transferred to a nitrocellulose membrane (Whatman, Maidstone, UK). Membranes were blocked with 5% skim milk in Tris-buffered saline (TBS) containing 0.1% Tween-20 for 30 min at room temperature (RT). After blocking, membranes were incubated with specific primary antibodies overnight at 4°C, followed by incubation with horseradish peroxidase-conjugated mouse- or rabbit-IgG for 1 h at RT. Antibody binding was detected using an enhanced chemiluminescence (ECL) kit (BioRad, Hercules, CA) according to the manufacturer's instructions. Primary antibodies against the following factors were used: HIF-1α (BD Biosciences, San Diego, CA, USA), HIF-1β (Cell Signaling Technology, Danvers, MA, USA), β-actin (Santa Cruz Biotechnology, Santa Cruz, CA, USA), hydroxylated-HIF-1α (P564) (Cell Signaling Technology, Danvers, MA, USA), and PHD2 (Abcam, Cambridge, UK).

HIF-1α [2] = target: T1, HIF-1α; assay: Immunofluorescence of nuclear HIF-1α in A549 cells; assay type: cell-based; settings: 1–100 nM, hypoxia 16 h
Description: To further confirm the effects of Compound 12 on the inhibition of HIF-1α protein expression, we performed an immunofluorescent assay in A549 cells. Cells were treated with Compound 12 (1–100 nM) for 16 h under hypoxic conditions, and were then fixed with paraformaldehyde. Fixed cells were processed to allow immunostaining of HIF-1α by a HIF-1α antibody.
Figure 4 Compound 12 increased hydroxylation and proteasome-mediated degradation of HIF-1α (A) A549 cells were treated with Compound 12 (at concentrations of 0 nM, 1 nM, 10 nM, and 100 nM) for 16 h. […] Cells were immediately treated with cycloheximide (CHX, 100 μg/mL) for the time indicated, and HIF-1α protein levels were determined by western blotting. β-actin was used as an internal control. Half-life (t1/2) of HIF-1α protein was determined using relative expression levels of HIF-1α. […] The expression levels of HIF-1α, hydroxylated (OH)-HIF-1α at P402 or P564, and PHD2 were determined via western blotting using specific antibodies. […] Relative levels of ubiquitinated HIF-1α were quantified and graphed.
Cells were cultured on coverslips in four-well plates at a density of 1 × 10^5 cells/well, and allowed to attach for 24 h. […] Coverslips were mounted on slides, and cells were observed using fluorescence microscopy at 400X magnification (Carl Zeiss, AG, Germany).

[3] = test system: chick chorioallantoic membrane angiogenesis; assay: Chick embryo chorioallantoic membrane (CAM) assay; assay type: in vivo; settings: applied to ED 4.5 CAM for two days; Compound 12 0.1 μg and 1 μg
Description: Figure 5 Compound 12 suppressed HIF-1α target gene expression, and confirmation of in vitro results via determination of effects on angiogenesis in vivo (A) A549 cells were treated with Compound 12 (at concentrations of 0 nM, 1 nM, 10 nM, and 100 nM) for 16 h. The mRNA levels of HIF-1α target genes were determined by semiquantitative RT-PCR. β-actin was used as an internal control. D. DMSO vehicle control. N, normoxia; H, hypoxia. (B) A549 cells were treated with serum-reduced culture media containing Compound 12 (at concentrations of 0 nM, 10 nM, and 100 nM) for 16 h. Media supernatant was collected, and secreted VEGF was determined by ELISA after removal of cellular debris. N, normoxia; H, hypoxia. **P < 0.01 versus hypoxia (H) DMSO (D)-treated control. (C) HUVECs were treated with Compound 12, at the indicated concentrations, in the presence of VEGF (20 ng/mL) for 24 h in 1% serum-containing media. […] Cells that migrated through the membrane (8 μm pore size) were stained with hematoxylin and eosin, pictured as shown in upper panel, and counted (graph). *P < 0.05, **P < 0.01 versus VEGF-treated control. […] (F) Compound 12 (0.1 μg and 1 μg dosages) and retinoic acid (RA, positive control) were applied to the ED 4.5 CAM for two days, neovessel formation from the large vessels was observed, and percentages of positive angiogenic eggs (from total eggs tested) were calculated. […]

T1 sequence (Q16665 whole entry): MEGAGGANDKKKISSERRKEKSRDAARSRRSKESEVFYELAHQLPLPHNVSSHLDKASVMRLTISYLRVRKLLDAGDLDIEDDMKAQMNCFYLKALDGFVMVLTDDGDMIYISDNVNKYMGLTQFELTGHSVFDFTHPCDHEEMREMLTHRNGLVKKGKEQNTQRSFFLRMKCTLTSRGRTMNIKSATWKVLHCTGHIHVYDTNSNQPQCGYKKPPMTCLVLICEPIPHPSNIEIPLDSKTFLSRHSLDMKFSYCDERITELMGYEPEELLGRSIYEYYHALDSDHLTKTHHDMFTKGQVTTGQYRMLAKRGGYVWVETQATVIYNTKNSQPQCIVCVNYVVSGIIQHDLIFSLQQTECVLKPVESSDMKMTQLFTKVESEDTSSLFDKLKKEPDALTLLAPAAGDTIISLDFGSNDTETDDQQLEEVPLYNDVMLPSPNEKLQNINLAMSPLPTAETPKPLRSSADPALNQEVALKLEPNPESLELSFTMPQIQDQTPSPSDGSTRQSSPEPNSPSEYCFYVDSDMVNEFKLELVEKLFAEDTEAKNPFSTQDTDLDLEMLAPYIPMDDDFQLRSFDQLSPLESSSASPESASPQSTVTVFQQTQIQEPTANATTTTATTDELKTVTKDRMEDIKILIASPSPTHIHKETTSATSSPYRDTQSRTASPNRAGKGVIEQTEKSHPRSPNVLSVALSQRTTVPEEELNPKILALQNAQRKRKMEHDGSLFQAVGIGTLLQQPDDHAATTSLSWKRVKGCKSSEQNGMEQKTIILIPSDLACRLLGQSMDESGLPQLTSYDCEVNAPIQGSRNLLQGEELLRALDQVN

In the case of COc1ccc(-c2cn(CC3(C)C=Cc4cc([N+](=O)[O-])ccc4O3)nn2)cc1 (stereo not drawn) [Compound 12, 4-(4-methoxyphenyl)-1-((2-methyl-6-nitro-2H-chromen-2-yl)methyl)-1H-1,2,3-triazole], the inhibition at 0.001 µM (HIF-1α [1]; 1 nM, read-out: downregulation of HIF-1α protein expression) was ~50%, the “inhibitory effect on HIF-1α accumulation (western blot)” value (HIF-1α [1]; 1 μM) was “most potent inhibitory effect” and the inhibition at 1 µM (HIF-1α [1]; 1 μM, compared to hypoxic control, read-out: reduction of HIF-1α protein levels) was 80%. For the same compound, the “accumulation of nuclear HIF-1α” value (HIF-1α [2]) was “inhibited in dose-dependent manner”, the “subcellular localization of HIF-1α” value (HIF-1α [2]) was “did not affect” and the CAM angiogenesis [3] was “significantly suppressed CAM angiogenesis, in a dose-dependent manner”.
